`CC1CCN(C2CCN(S(=O)(=O)c3cccnc3Cl)CC2)CC1` [compound 72, 1′-((2-Chloropyridin-3-yl)sulfonyl)-4-methyl-1,4′-bipiperidine] and `CC1CCN(C2CCN(S(=O)(=O)c3cccnc3F)CC2)CC1` [compound 73, 1′-((2-Fluoropyridin-3-yl)sulfonyl)-4-methyl-1,4′-bipiperidine] cannot be ordered by melting point: 122 to 124 °C for the first, 120 to 123 °C for the second.

First: CC1CCN(C2CCN(S(=O)(=O)c3ccc(Br)cc3OC(F)(F)F)CC2)CC1 [compound 45, 1′-((4-Bromo-2-(trifluoromethoxy)phenyl)sulfonyl)-4-methyl-1,4′-bipiperidine]
Second: COc1ccc(Br)cc1S(=O)(=O)N1CCC(N2CCC(C)CC2)CC1 [compound 33, 1′-((5-Bromo-2-methoxyphenyl)sulfonyl)-4-methyl-1,4′-bipiperidine]
The melting point of the first is higher: 108 to 110 °C for the first, 98 to 102 °C for the second.

First: CC1CCN(C2CCN(S(=O)(=O)c3ccccc3Br)CC2)CC1 [compound 30, 1′-((2-Bromophenyl)sulfonyl)-4-methyl-1,4′-bipiperidine]
Second: CC1CCN(C2CCN(S(=O)(=O)c3cccc(Br)c3)CC2)CC1 [compound 29, 1′-((3-Bromophenyl)sulfonyl)-4-methyl-1,4′-bipiperidine]
The melting point of the first is lower: 82 to 84 °C for the first, 125 to 126 °C for the second.

First: CC1CCCN(C2CCN(S(=O)(=O)c3ccc(OC(F)F)cc3)CC2)C1 (stereo not drawn) [compound 91, 1′-((4-(Difluoromethoxy)phenyl)sulfonyl)-3-methyl-1,4′-bipiperidine]
Second: CCCOc1ccc(S(=O)(=O)N2CCC(N3CCC(C)CC3)CC2)cc1 [compound 18, 4-Methyl-1′-((4-propoxyphenyl)sulfonyl)-1,4′-bipiperidine]
The melting point of the first is lower: 88 to 91 °C for the first, 118 to 121 °C for the second.

First: CC1CCN(C2CCN(S(=O)(=O)c3ccc(Cl)c(Cl)c3)CC2)CC1 [compound 40, 1′-((3,4-Dichlorophenyl)sulfonyl)-4-methyl-1,4′-bipiperidine]
Second: CC1CCN(C2CCN(S(=O)(=O)c3ccc(Cl)c(C(F)(F)F)c3)CC2)CC1 [compound 39, 1′-((4-Chloro-3-(trifluoromethyl)phenyl)sulfonyl)-4-methyl-1,4′-bipiperidine]
The melting point of the first is higher: 160 to 162 °C for the first, 118 to 120 °C for the second.

Compared with `Cc1cc(C)cc(-c2cccc(S(=O)(=O)N3CCC(N4CCC(C)CC4)CC3)c2)c1` [compound 69, 1′-((3′,5′-Dimethyl-[1,1′-biphenyl]-3-yl)sulfonyl)-4-methyl-1,4′-bipiperidine], `Cc1ccc(-c2cccc(S(=O)(=O)N3CCC(N4CCC(C)CC4)CC3)c2)cc1` [compound 64, 4-Methyl-1′-((4′-methyl-[1,1′-biphenyl]-3-yl)sulfonyl)-1,4′-bipiperidine] is lower in melting point: 120 to 123 °C for the first, 103 to 105 °C for the second.

First: Cc1cc(C)c(S(=O)(=O)N2CCC(N3CCC(O)CC3)CC2)c(C)c1 [compound 101, 1′-(Mesitylsulfonyl)-[1,4′-bipiperidin]-4-ol]
Second: Cc1cc(C)c(S(=O)(=O)N2CCC(N3CCC(C)CC3)CC2)c(C)c1 [compound 47, 1′-(Mesitylsulfonyl)-4-methyl-1,4′-bipiperidine]
The melting point of the first is higher: 120 to 123 °C for the first, 62 to 65 °C for the second.

Compared with `Cc1noc(C)c1S(=O)(=O)N1CCC(N2CCC(C)CC2)CC1` [compound 79, 3,5-Dimethyl-4-((4-methyl-[1,4′-bipiperidin]-1′-yl)sulfonyl)isoxazole], `Cc1nc(Cl)sc1S(=O)(=O)N1CCC(N2CCC(C)CC2)CC1` [compound 81, 2-Chloro-4-methyl-5-((4-methyl-[1,4′-bipiperidin]-1′-yl)sulfonyl)thiazole] is lower in melting point: 158 to 161 °C for the first, 117 to 119 °C for the second.

First: Cc1cc(Cl)cc(Cl)c1S(=O)(=O)N1CCC(N2CCC(C)CC2)CC1 [compound 49, 1′-((2,4-Dichloro-6-methylphenyl)sulfonyl)-4-methyl-1,4′-bipiperidine]
Second: CC1CCN(C2CCN(S(=O)(=O)c3cccc(Cl)c3)CC2)CC1 [compound 28, 1′-((3-Chlorophenyl)sulfonyl)-4-methyl-1,4′-bipiperidine]
The melting point of the first is lower: 89 to 91 °C for the first, 122 to 124 °C for the second.

First: COc1cc(C)ccc1S(=O)(=O)N1CCC(N2CCC(C)CC2)CC1 [compound 34, 1′-((2-Methoxy-4-methylphenyl)sulfonyl)-4-methyl-1,4′-bipiperidine]
Second: Cc1ccc(C#N)c(S(=O)(=O)N2CCC(N3CCC(C)CC3)CC2)c1 [compound 36, 4-Methyl-2-((4-methyl-[1,4′-bipiperidin]-1′-yl)sulfonyl)benzonitrile]
The melting point of the first is lower: 95 to 98 °C for the first, 118 to 121 °C for the second.

First: Cc1cccc(S(=O)(=O)N2CCC(N3CCC(C)CC3)CC2)c1 [compound 26, 4-Methyl-1′-(m-tolylsulfonyl)-1,4′-bipiperidine]
Second: COc1cccc(S(=O)(=O)N2CCC(N3CCC(C)CC3)CC2)c1 [compound 23, 1′-((3-Methoxyphenyl)sulfonyl)-4-methyl-1,4′-bipiperidine]
The melting point of the first is higher: 90 to 93 °C for the first, 81 to 83 °C for the second.

First: CC1CCN(C2CCN(S(=O)(=O)c3ccc(F)cc3F)CC2)CC1 [compound 44, 1′-((2,4-Difluorophenyl)sulfonyl)-4-methyl-1,4′-bipiperidine]
Second: CC1CCN(C2CCN(S(=O)(=O)c3cc(F)c(Br)c(F)c3)CC2)CC1 [compound 50, 1′-((4-Bromo-3,5-difluorophenyl)sulfonyl)-4-methyl-1,4′-bipiperidine]
The melting point of the first is higher: 165 to 168 °C for the first, 161 to 163 °C for the second.

First: CC1CCN(C2CCN(S(=O)(=O)c3ccc(-c4ccc(Cl)cc4)cc3)CC2)CC1 [compound 57, 1′-((4′-Cloro-[1,1′-biphenyl]-4-yl)sulfonyl)-4-methyl-1,4′-bipiperidine]
Second: COc1ccc(-c2cccc(S(=O)(=O)N3CCC(N4CCC(C)CC4)CC3)c2)cc1 [compound 63, 1′-((4′-Methoxy-[1,1′-biphenyl]-3-yl)sulfonyl)-4-methyl-1,4′-bipiperidine]
The melting point of the first is higher: 205 to 207 °C for the first, 107 to 109 °C for the second.

Compared with `CC1CCN(C2CCN(S(=O)(=O)c3ccc(C(C)C)cc3)CC2)CC1` [compound 13, 1′-((4-Isopropylphenyl)sulfonyl)-4-methyl-1,4′-bipiperidine], `CCc1ccc(S(=O)(=O)N2CCC(N3CCC(C)CC3)CC2)cc1` [compound 12, 1′-((4-Ethylphenyl)sulfonyl)-4-methyl-1,4′-bipiperidine] is lower in melting point: 144 to 147 °C for the first, 108 to 110 °C for the second.

First: CC1CCN(C2CCN(S(=O)(=O)c3ccc(Cl)nc3)CC2)CC1 [compound 74, 1′-((6-Chloropyridin-3-yl)sulfonyl)-4-methyl-1,4′-bipiperidine]
Second: CC1CCN(C2CCN(S(=O)(=O)c3cncc(Br)c3)CC2)CC1 [compound 75, 1′-((5-Bromopyridin-3-yl)sulfonyl)-4-methyl-1,4′-bipiperidine]
The melting point of the first is higher: 178 to 182 °C for the first, 171 to 173 °C for the second.

First: CC1CCN(C2CCN(S(=O)(=O)c3ccc(OCc4ccccc4)cc3)CC2)CC1 [compound 20, 1′-((4-(Benzyloxy)phenyl)sulfonyl)-4-methyl-1,4′-bipiperidine]
Second: CC1CCN(C2CCN(S(=O)(=O)c3ccc(C#N)cc3)CC2)CC1 [compound 9, 4-((4-Methyl-[1,4′-bipiperidin]-1′-yl)sulfonyl)benzonitrile]
The melting point of the first is lower: 157 to 159 °C for the first, 184 to 186 °C for the second.

First: Cc1cc(C)c(S(=O)(=O)N2CCC(C(=O)N3CCC(C)CC3)CC2)c(C)c1 [compound 113, (1-(Mesitylsulfonyl)piperidin-4-yl 4-methylpiperidin-1-yl)methanone]
Second: Cc1cc(C)c(S(=O)(=O)N2CCC(N3CCC(CCO)CC3)CC2)c(C)c1 [compound 100, 2-(1′-(Mesitylsulfonyl)-[1,4′-bipiperidin]-4-yl)ethanol]
The melting point of the first is higher: 122 to 124 °C for the first, 82 to 85 °C for the second.

First: Cc1cc(C)c(S(=O)(=O)N2CCC(C=O)CC2)c(C)c1 [compound 138, 1-(mesitylsulfonyl)piperidine-4-carbaldehyde]
Second: CCCC(=O)NC1CCN(S(=O)(=O)c2c(C)cc(C)cc2C)CC1 [compound 118, N-(1-(Mesitylsulfonyl)piperidin-4-yl)butyramide]
The melting point of the first is lower: 71 to 74 °C for the first, 144 to 147 °C for the second.

Compared with `Cc1ccc(NC2CCN(S(=O)(=O)c3c(C)cc(C)cc3C)CC2)cc1` [compound 114, 1-(Mesitylsulfonyl)-N-(p-tolyl)piperidin-4-amine], `Cc1cc(C)c(S(=O)(=O)c2ccc(N3CCC(C)CC3)cc2)c(C)c1` [compound 125, 1-(4-(Mesitylsulfonyl)phenyl)-4-methylpiperidine] is lower in melting point: 148 to 151 °C for the first, 103 to 105 °C for the second.

First: CC1CCN(C2CCN(S(=O)(=O)c3ccc(C(C)(C)C)cc3)CC2)CC1 [compound 14, 1′-((4-(Tert-butyl)phenyl)sulfonyl)-4-methyl-1,4′-bipiperidine]
Second: CC1CCN(C2CCN(S(=O)(=O)c3ccc([N+](=O)[O-])cc3)CC2)CC1 [compound 7, 4-Methyl-1′-((4-nitrophenyl)sulfonyl)-1,4′-bipiperidine]
The melting point of the first is higher: 173 to 176 °C for the first, 165 to 168 °C for the second.

First: CC1CCN(CC2CCN(S(=O)(=O)c3ccc(-c4ccccc4F)cc3)CC2)CC1 [compound 154, 1-((2′-fluoro-[1,1′-biphenyl]-4-yl)sulfonyl)-4-((4-methylpiperidin-1-yl)methyl)piperidine]
Second: CC1CCN(CC2CCN(S(=O)(=O)c3ccc(-c4ccccc4)cc3)CC2)CC1 [compound 155, 1-([1,1′-biphenyl]-4-ylsulfonyl)-4-((4-methylpiperidin-1-yl)methyl)piperidine]
The melting point of the first is lower: 136 to 139 °C for the first, 148 to 151 °C for the second.

Compared with `CC1CCN(C2CCN(S(=O)(=O)c3sc(Cl)nc3C3CC3)CC2)CC1` [compound 82, 2-Chloro-4-cyclopropyl-5-((4-methyl-[1,4′-bipiperidin]-1′-yl)sulfonyl)thiazole], `CC1CCN(C2CCN(S(=O)(=O)c3cn(C)c(=O)n(C)c3=O)CC2)CC1` [compound 76, 1,3-Dimethyl-5-((4-methyl-[1,4′-bipiperidin]-1′-yl)sulfonyl)pyrimidine-2,4(1H,3H)-dione] is higher in melting point: 139 to 141 °C for the first, 212 to 215 °C for the second.

For `Cc1cc(C)c(S(=O)(=O)N2CCN(C34CC5CC(CC(C5)C3)C4)CC2)c(C)c1` [compound 128, 1-(Adamantan-1-yl)-4-(mesitylsulfonyl)piperazine], the melting point was 182 to 184 °C.

Source: US20220024891A1 (The Board of Regents of the University of Texas System, priority 2018, published 2022)
